Consider nine compounds from patent publication US4555572A, “Pyrazolo[3,4,5-kl]acridine compositions and methods for their production and use” (Warner-Lambert Company, priority 1984, dated 1985).

One experiment has as its system Alcaligenes viscolactis. Briefly: in vitro antibacterial/antifungal (ABF) agar-disk diffusion assay. Particulars: read-out: ABF zone diameter A. viscol.; for zone of inhibition at 100 µg/mL: dose .1 mg/ml. The format is cell-based. The protocol: (§1) (b) Another test protocol is the in vitro antibacterial/antifungal (ABF) test. Compounds are tested for antimicrobial activity in an agar-disk diffusion assay, a standard microbiological technique for testing antibiotics. After incubation of each culture with a test compound, a zone of inhibition is determined. The zone diameter (mm) of active compounds ranges from a minimum of 14 mm to as high as 60 mm, with a greater diameter reflecting higher activity. For convenience, values are reported for (Alcaligenes viscolactis, Sarcina lutea, Branhamella catarrhalis, Bacillus subtilis, and Streptococcus faecalis.
(In general: In agar diffusion tests the substance spreads into inoculated agar from a disc or well.)

The subject of a further experiment is Bacillus subtilis. The experiment is described as above. The format is cell-based. Particulars: for zone of inhibition at 100 µg/mL: dose .1 mg/ml. As for the experimental part:
as §1

A further experiment concerns Branhamella catarrhalis. Described as above. The format is cell-based. Particulars: Moraxella catarrhalis, read-out: ABF zone diameter B. catarrh.; for zone of inhibition at 500 µg/mL: dose .5 mg/ml; for zone of inhibition at 100 µg/mL: dose .1 mg/ml. The protocol:
as §1

In another experiment the test system is Sarcina lutea. Described as above. Particulars: Micrococcus luteus, read-out: ABF zone diameter S. lutea; for zone of inhibition at 500 µg/mL: dose .5 mg/ml; for zone of inhibition at 1000 µg/mL: dose 1 mg/ml. It counts as cell-based. The protocol: as §1
The subject of another experiment is Streptococcus faecalis. Described as above. The format is cell-based. Particulars: Enterococcus faecalis, read-out: ABF zone diameter S. faecalis; for zone of inhibition at 500 µg/mL: dose .5 mg/ml; for zone of inhibition at 1000 µg/mL: dose 1 mg/ml. The protocol: as §1
Experiment [1] relates to lymphocytic leukemia P388. Kind of experiment: in vivo lymphocytic leukemia P388 test. More on the design: species or system CD2 F1 mice. Particulars: Mus musculus, P388, ip, 120 h, intraperitoneally once daily for five days, read-out: P388 in vivo T/C × 100. An outline of the steps:
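CD2 F1 mice (6–7 per group) inoculated i.p. with P388 ascitic cells; compound dosed i.p. once daily for 5 consecutive days after inoculation. Survival followed 30 days; efficacy as treated/control survival time ×100 (≥125 criterion); "toxic" if all animals died within 4 days of first dose.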

Another experiment concerns HCT-8 cells. Kind of experiment: in vitro proliferating human colon adenocarcinoma (HCA) cell screen, HCT-8. It counts as cell-based. Particulars: HCT-8 cells, 60 to 65 hours, molar concentration for 50% inhibition of growth, read-out: HCA in vitro ID50 avg. An outline of the steps: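 HCT-8 colon adenocarcinoma cells seeded in RPMI 1640 + 10% FCS, grown 48 h, then exposed to compounds for 60-65 h at 37 °C, 5% CO2. Nuclei counted by Coulter counter after lysis; ID50 is the molar concentration giving 50% growth inhibition.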

The mark [2] stands for this setting: Bacillus subtilis, read-out: ABF zone diameter B. subtil.

Structures can show the parent of a compound that is named as a salt.

For the compound `O=[N+]([O-])c1ccc2c3c(nn2CCNCCO)-c2ccccc2Nc13` [Example 3, 2-[[2-(5-Nitropyrazolo[3,4,5-kl[acridin-2(6H)-yl)ethyl]amino]ethanol, monohydrochloride], the zone of inhibition at 100 µg/mL with Alcaligenes viscolactis came out at 21 mm. Also, the zone of inhibition at 100 µg/mL with Bacillus subtilis (setting [2]) turned out to be 18 mm. The zone of inhibition at 500 µg/mL with Branhamella catarrhalis was determined as 25 mm. The zone of inhibition at 500 µg/mL in the experiment with Sarcina lutea was found to be 14 mm. Further, the zone of inhibition at 500 µg/mL in the experiment on Streptococcus faecalis is 15 mm. In experiment [1], the response vs control in vivo at 3.12 mg/kg came out at 122%, the response vs control in vivo at 6.25 mg/kg turned out to be 132%, the response vs control in vivo at 12.5 mg/kg is 158% and the response vs control in vivo at 25 mg/kg is 185%.

On to `CCN(CC)CCn1nc2c3c(c([N+](=O)[O-])ccc31)N(C)c1ccccc1-2` [Example 2, N,N-Diethyl-6-methyl-5-nitropyrazolo[3,4,5-kl]acridine-2(6H)-ethanamine, methanesulfonate], for which the IC50 in the experiment with HCT-8 cells is 1000 nM. Besides, the zone of inhibition at 100 µg/mL in the experiment with Alcaligenes viscolactis was determined as 20 mm; in the experiment with Bacillus subtilis (setting [2]) it was 18 mm; in the experiment with Branhamella catarrhalis it was 17 mm. The zone of inhibition at 500 µg/mL in the experiment with Streptococcus faecalis turned out to be 16 mm. The response vs control in vivo at 12.5 mg/kg in experiment [1] was 126%. Moreover, in experiment [1], the response vs control in vivo at 25 mg/kg is 184%.

Consider `CCN(CC)CCn1nc2c3c(c([N+](=O)[O-])ccc31)N(C)c1ccc(OC)cc1-2` [Example 6, N,N-Diethyl-9-methoxy-6-methyl-5-nitropyrazolo[3,4,5-kl]acridine-2(6H)-ethanamine, monomethanesulfonate], for which the IC50 in the experiment with HCT-8 cells is 310 nM. For the same compound, the zone of inhibition at 100 µg/mL with Alcaligenes viscolactis worked out at 15 mm. Further, the zone of inhibition at 500 µg/mL in the experiment on Bacillus subtilis (Bacillus subtilis, dose .5 mg/ml, read-out: ABF zone diameter B. subtil.) came to 19 mm. Besides, the zone of inhibition at 500 µg/mL in the experiment with Branhamella catarrhalis was 16 mm. Besides, the zone of inhibition at 500 µg/mL in the experiment with Sarcina lutea was found to be 15 mm. Moreover, in the experiment on Streptococcus faecalis, the zone of inhibition at 1000 µg/mL came out at 15 mm. For the same compound, in experiment [1], the response vs control in vivo at 6.25 mg/kg is 142%, the response vs control in vivo at 12.5 mg/kg worked out at 151%, the response vs control in vivo at 25 mg/kg is 173% and the response vs control in vivo at 50 mg/kg was 230%.

As to `COc1ccc2c(c1)-c1nn(CCN(C)C)c3ccc([N+](=O)[O-])c(c13)N2` [Example 5a, 9-methoxy-N,N-dimethyl-5-nitropyrazolo[3,4,5-kl]acridine-2(6H)=-ethanamine, methanesulfonate], the IC50 in the experiment on HCT-8 cells worked out at 100 nM. Moreover, in the experiment on Alcaligenes viscolactis, the zone of inhibition at 100 µg/mL worked out at 19 mm. The zone of inhibition at 100 µg/mL with Bacillus subtilis (setting [2]) is 14 mm. The zone of inhibition at 500 µg/mL in the experiment with Branhamella catarrhalis stood at 21 mm. Besides, the zone of inhibition at 1000 µg/mL in the experiment on Sarcina lutea worked out at 16 mm. Besides, the zone of inhibition at 500 µg/mL in the experiment on Streptococcus faecalis is 15 mm. In experiment [1], the response vs control in vivo at 12.5 mg/kg came to 181%, the response vs control in vivo at 25 mg/kg turned out to be 228% and the response vs control in vivo at 50 mg/kg is 275%.

On to `CCN(CC)CCn1nc2ccc([N+](=O)[O-])c3c2c1-c1ccccc1N3` [Example 8, yl-5-nitropyrazolo[3,4,5-kl]acridine-1(6H)-ethanamine, monomethanesulfonate], for which, in the experiment on Alcaligenes viscolactis, the zone of inhibition at 100 µg/mL was found to be 23 mm. For the same compound, in the experiment with Bacillus subtilis (dose not given), the “ABF zone diameter B. subtil.” value is listed as 0 mm. Besides, in the experiment on Branhamella catarrhalis (dose .01 mg/ml), the zone of inhibition at 10 µg/mL is 15 mm. The zone of inhibition at 500 µg/mL in the experiment with Sarcina lutea was 18 mm. Moreover, the zone of inhibition at 500 µg/mL in the experiment on Streptococcus faecalis turned out to be 18 mm. Further, in experiment [1], the response vs control in vivo at 12.5 mg/kg is 140% and the response vs control in vivo at 50 mg/kg came to 211%.

In the case of `CCN(CC)CCn1nc2c3c(c([N+](=O)[O-])ccc31)Nc1ccc(O)cc1-2` [Example 10, 2-[2-(Diethylamino)ethyl]-2,6-dihydro-5-nitropyrazolo[3,4,5 kl]acridin-9-ol, monomethanesulfonate], in the experiment on HCT-8 cells, the IC50 was 13 nM. In addition, in the experiment on Alcaligenes viscolactis (dose .01 mg/ml), the zone of inhibition at 10 µg/mL was 15 mm. For the same compound, the zone of inhibition at 100 µg/mL turned out to be 17 mm with Bacillus subtilis (setting [2]) and 18 mm with Branhamella catarrhalis. Moreover, the zone of inhibition at 1000 µg/mL in the experiment with Sarcina lutea is 14 mm. Further, the zone of inhibition at 500 µg/mL with Streptococcus faecalis is 16 mm. The response vs control in vivo at 0.38 mg/kg in experiment [1] (0.38 mg/kg) turned out to be 138%. For the same compound, the response vs control in vivo at 0.75 mg/kg in experiment [1] (0.75 mg/kg) stood at 149%. Besides, the response vs control in vivo at 1.5 mg/kg in experiment [1] (1.50 mg/kg) is 158%. Also, the response vs control in vivo at 3 mg/kg in experiment [1] (3.00 mg/kg) is 180%.

`CN1c2ccccc2-c2nn(CCNCCO)c3ccc([N+](=O)[O-])c1c23` [Example 4, 2-[[2-[6-Methyl-5-nitropyrazolo[3,4,5-kl-acridin-2-(6H)-yl]ethyl]amino]ethanol, methanesulfonate]: the zone of inhibition at 100 µg/mL in the experiment with Alcaligenes viscolactis is 19 mm; in the experiment with Bacillus subtilis (setting [2]), 20 mm; in the experiment with Branhamella catarrhalis, 16 mm. For the same compound, the zone of inhibition at 500 µg/mL with Sarcina lutea was 19 mm; in the experiment with Streptococcus faecalis, 18 mm. The response vs control in vivo at 25 mg/kg in experiment [1] was found to be 120%. The response vs control in vivo at 50 mg/kg in experiment [1] came to 180%.

For `CCN(CC)CCn1nc2c3c(c([N+](=O)[O-])ccc31)Nc1ccccc1-2` [Example 1, N,N-Diethyl-5-nitropyrazolo[3,4,5-kl]acridine-2(6H)-ethanamine, methanesulfonate (1:1)], in the experiment with HCT-8 cells, the IC50 was determined as 300 nM. Besides, the zone of inhibition at 100 µg/mL in the experiment on Alcaligenes viscolactis stood at 22 mm; in the experiment on Bacillus subtilis (setting [2]), 15 mm; with Branhamella catarrhalis it was 17 mm; with Sarcina lutea (dose .1 mg/ml), 14 mm. Also, the zone of inhibition at 500 µg/mL with Streptococcus faecalis is 17 mm. Also, in experiment [1] (2.50 mg/kg), the response vs control in vivo at 2.5 mg/kg came out at 122%. Also, the response vs control in vivo at 5 mg/kg in experiment [1] (5.00 mg/kg) was 163%. In addition, the response vs control in vivo at 6.25 mg/kg in experiment [1] was found to be 165%.

Consider `CCN(CC)CCn1nc2c3c(c([N+](=O)[O-])ccc31)Nc1ccc(OC)cc1-2` [Example 5, N,N-Diethyl-9-methoxy-5-nitropyrazolo-[3,4,5-kl]acridine-2(6H)-ethanamine, methanesulfonate (1:1)], for which the IC50 in the experiment with HCT-8 cells was 120 nM. For the same compound, the zone of inhibition at 100 µg/mL in the experiment with Alcaligenes viscolactis came out at 18 mm. For the same compound, in the experiment with Bacillus subtilis (setting [2]), the zone of inhibition at 100 µg/mL worked out at 15 mm. The zone of inhibition at 100 µg/mL in the experiment with Branhamella catarrhalis was 16 mm. Further, the zone of inhibition at 500 µg/mL with Sarcina lutea came to 14 mm. Also, in the experiment on Streptococcus faecalis, the zone of inhibition at 1000 µg/mL was 14 mm. For the same compound, in experiment [1], the response vs control in vivo at 3.12 mg/kg turned out to be 143%, the response vs control in vivo at 6.25 mg/kg is 158%, the response vs control in vivo at 12.5 mg/kg worked out at 197% and the response vs control in vivo at 25 mg/kg was found to be 242%.
